Data from US20240158446A1, “CYCLIC COMPOUND HAVING SELECTIVE INHIBITORY ACTION ON KRAS OVER HRAS AND NRAS” (CHUGAI SEIYAKU KABUSHIKI KAISHA, priority 2021, published 2024).
Where a SMILES comes first, the peptide text is derived from it. Bridges are numbered along the chain shown (N, C = ends). [ ]: non-standard residue; d: D form. The star is where a group is joined. hPhe(3-Cl-4-CF3) = N[C@@H](CCc1ccc(C(F)(F)F)c(Cl)c1)C(=O)O; NPrPhe(4-CF3) = CCCN[C@@H](Cc1ccc(C(F)(F)F)cc1)C(=O)O; Pro(4-spirocPr) = O=C(O)[C@@H]1CC2(CC2)CN1; Morpholine(3S-CO) = O=C(O)[C@@H]1COCCN1; NMeGly(cPent) = CN[C@H](C(=O)O)C1CCCC1; Gly(cPent) = N[C@H](C(=O)O)C1CCCC1; Hyp = O=C(O)[C@@H]1C[C@@H](O)CN1; NMeD = CN[C@@H](CC(=O)O)C(=O)O; NMeL = CN[C@@H](CC(C)C)C(=O)O; Morpholide = C1CN(*)CCO1; Ac5c = NC1(C(=O)O)CCCC1; Aze = O=C(O)[C@@H]1CCN1; Ac4c = NC1(C(=O)O)CCC1; Sar = CNCC(=O)O

Columns and labels:
[1] = molecular target: GDP-bound NRAS wild-type protein (Homo sapiens, UniProt P01111); assay: Binding to NRAS by surface plasmon resonance (SPR), Single Cycle Kinetics; conditions: SPR, GDP-bound NRAS wild-type protein vs GDP-bound KRAS wild-type protein
Chain of GDP-bound NRAS wild-type protein (P01111 whole entry): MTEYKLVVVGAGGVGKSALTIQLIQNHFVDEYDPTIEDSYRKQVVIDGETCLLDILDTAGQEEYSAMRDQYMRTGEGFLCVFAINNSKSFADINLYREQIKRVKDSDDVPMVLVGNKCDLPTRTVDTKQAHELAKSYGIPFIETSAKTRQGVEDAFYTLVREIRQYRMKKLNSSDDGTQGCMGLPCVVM

[2] = molecular target: GDP-bound HRAS wild-type protein (Homo sapiens, UniProt P01112); assay: Binding to HRAS by surface plasmon resonance (SPR), Single Cycle Kinetics; conditions: SPR, GDP-bound HRAS wild-type protein vs GDP-bound KRAS wild-type protein
Chain of GDP-bound HRAS wild-type protein (P01112 whole entry): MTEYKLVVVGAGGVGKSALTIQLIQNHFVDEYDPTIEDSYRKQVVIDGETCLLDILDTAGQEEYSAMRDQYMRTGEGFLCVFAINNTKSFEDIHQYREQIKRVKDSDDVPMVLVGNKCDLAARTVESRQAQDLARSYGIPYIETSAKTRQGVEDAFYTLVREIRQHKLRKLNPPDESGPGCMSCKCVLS

[3] = test system: human lung cancer strain NCI-H441;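 also: cell proliferation inhibition after four days measured by CellTiter-Glo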

Row | Structure (SMILES) | NRAS/KRAS (ratio of KD value for NRAS to KD value for KRAS) [1] | HRAS/KRAS (ratio of KD value for HRAS to KD value for KRAS) [2] | IC50 [3]
1 | CCCN1C(=O)CN(C)C(=O)[C@@H]2CCN2C(=O)[C@H](C2CCCC2)NC(=O)[C@H](CC(C)C)N(C)C(=O)C[C@@H](C(=O)N2CCOCC2)N(C)C(=O)[C@H](C2CCCC2)N(C)C(=O)C2(CCCC2)NC(=O)[C@@H]2CCCN2C(=O)[C@H](CCc2ccc(C(F)(F)F)c(Cl)c2)NC(=O)CN(C)C(=O)[C@@H]1Cc1ccc(C(F)(F)F)cc1 [PP0306] ([NMeL][Gly(cPent)][Aze][Sar][NPrPhe(4-CF3)][Sar][hPhe(3-Cl-4-CF3)]P[Ac5c][NMeGly(cPent)][NMeD]-Morpholide; lactam N-11) | B (a compound having 3 or more and less than 10 is denoted as B) | B (a compound having 3 or more and less than 10 is denoted as B) | 142 nM
2 | CCCN1C(=O)CN(C)C(=O)[C@@H]2CCN2C(=O)[C@H]([C@@H](C)CC)NC(=O)[C@H](CC(C)C)N(C)C(=O)C[C@@H](C(=O)N2CCOCC2)N(C)C(=O)[C@H](C2CCCC2)N(C)C(=O)C2(CCCC2)NC(=O)[C@@H]2CCN2C(=O)[C@H](CCc2ccc(C(F)(F)F)c(Cl)c2)NC(=O)CN(C)C(=O)[C@@H]1Cc1ccc(C(F)(F)F)cc1 [PP0307] ([NMeL]I[Aze][Sar][NPrPhe(4-CF3)][Sar][hPhe(3-Cl-4-CF3)][Aze][Ac5c][NMeGly(cPent)][NMeD]-Morpholide; lactam N-11) | B (a compound having 3 or more and less than 10 is denoted as B) | B (a compound having 3 or more and less than 10 is denoted as B) | 205 nM
3 | CCCN1C(=O)CN(C)C(=O)[C@@H]2CCN2C(=O)[C@H]([C@@H](C)CC)NC(=O)[C@H](CC(C)C)N(C)C(=O)C[C@@H](C(=O)N2CCOCC2)N(C)C(=O)[C@H](C2CCCC2)N(C)C(=O)C2(CCCC2)NC(=O)[C@@H]2CC3(CC3)CN2C(=O)[C@H](CCc2ccc(C(F)(F)F)c(Cl)c2)NC(=O)CN(C)C(=O)[C@@H]1Cc1ccc(C(F)(F)F)cc1 [PP0308] ([NMeL]I[Aze][Sar][NPrPhe(4-CF3)][Sar][hPhe(3-Cl-4-CF3)][Pro(4-spirocPr)][Ac5c][NMeGly(cPent)][NMeD]-Morpholide; lactam N-11) | B (a compound having 3 or more and less than 10 is denoted as B) | B (a compound having 3 or more and less than 10 is denoted as B) | 56 nM
4 | CCCN1C(=O)CN(C)C(=O)[C@@H]2CCN2C(=O)[C@H]([C@@H](C)CC)NC(=O)[C@H](CC(C)C)N(C)C(=O)C[C@@H](C(=O)N2CCOCC2)N(C)C(=O)[C@H](C2CCCC2)N(C)C(=O)C2(CCCC2)NC(=O)[C@@H]2C[C@@H](OC)CN2C(=O)[C@H](CCc2ccc(C(F)(F)F)c(Cl)c2)NC(=O)CN(C)C(=O)[C@@H]1Cc1ccc(C(F)(F)F)cc1 [PP0309] ([NMeL]I[Aze][Sar][NPrPhe(4-CF3)][Sar][hPhe(3-Cl-4-CF3)][Hyp](Me)[Ac5c][NMeGly(cPent)][NMeD]-Morpholide; lactam N-11) | B (a compound having 3 or more and less than 10 is denoted as B) | B (a compound having 3 or more and less than 10 is denoted as B) | 11.7 nM
5 | CCCN1C(=O)CN(C)C(=O)[C@@H]2CCN2C(=O)[C@H]([C@@H](C)CC)NC(=O)[C@H](CC(C)C)N(C)C(=O)C[C@@H](C(=O)N2CCOCC2)N(C)C(=O)[C@H](C2CCCC2)N(C)C(=O)C2(CCCC2)NC(=O)[C@@H]2COCCN2C(=O)[C@H](CCc2ccc(C(F)(F)F)c(Cl)c2)NC(=O)CN(C)C(=O)[C@@H]1Cc1ccc(C(F)(F)F)cc1 [PP0313] ([NMeL]I[Aze][Sar][NPrPhe(4-CF3)][Sar][hPhe(3-Cl-4-CF3)][Morpholine(3S-CO)][Ac5c][NMeGly(cPent)][NMeD]-Morpholide; lactam N-11) | B (a compound having 3 or more and less than 10 is denoted as B) | C (A compound having a KD ratio of 0.1 or more and less than 3 is denoted as C) | 56.6 nM
6 | CCCN1C(=O)CN(C)C(=O)[C@@H]2CCN2C(=O)[C@H]([C@@H](C)CC)NC(=O)[C@H](CC(C)C)N(C)C(=O)C[C@@H](C(=O)N2CCOCC2)NC(=O)[C@H](C2CCCC2)N(C)C(=O)C2(CCC2)NC(=O)[C@@H]2CCCN2C(=O)[C@H](CCc2ccc(C(F)(F)F)c(Cl)c2)NC(=O)CN(C)C(=O)[C@@H]1Cc1ccc(C(F)(F)F)cc1 [PP0338] ([NMeL]I[Aze][Sar][NPrPhe(4-CF3)][Sar][hPhe(3-Cl-4-CF3)]P[Ac4c][NMeGly(cPent)]D-Morpholide; lactam N-11) | B (a compound having 3 or more and less than 10 is denoted as B) | B (a compound having 3 or more and less than 10 is denoted as B) | 296 nM
